Measured values taken from ChEMBL document CHEMBL1201862, “PubChem BioAssay data set” (2004).
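Dose response: 5 concentrations. Exposure: 48 h. Format: 96-well plates. Endpoint: linear interpolation; highest concentration if not reached. The concentration for 50% growth inhibition is given as GI50.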 Active and inactive are the calls of the source. No stated cut-off is given here; in the data, active = GI50 up to about 1.1 µM and inactive = higher.

Columns and labels:
Experiment in all cases: inhibition of tumour cell growth, NCI panel, 48 h
[1] = system: COLO 205
[2] = system: HOP-62
[3] = system: NCI-H226
[4] = system: A549
[5] = system: A498
[6] = system: IGROV-1
[7] = system: NCI-H522
[8] = system: SK-MEL-28
[9] = system: OVCAR-5
[10] = system: SK-MEL-2
[11] = system: ACHN
[12] = system: KM12
[13] = system: NCI-H460
[14] = system: SNB-75
[15] = system: U-251
[16] = system: Malme-3M
[17] = system: OVCAR-4
[18] = system: UACC-62
[19] = system: SK-MEL-5

Measured: GI50

COc1cc([C@@H]2OCC3C(c4ccc5c(c4)OCO5)OCC32)cc(OC)c1OC (stereo partly drawn)
inactive: [1] > 100 µM | [2] > 100 µM | [3] 41.3 µM | [4] 71.3 µM | [5] > 100 µM | [6] > 100 µM | [7] 49.9 µM | [8] > 100 µM | [9] > 100 µM | [10] > 100 µM | [11] > 100 µM | [12] > 100 µM | [13] > 100 µM | [14] 4.33 µM | [15] > 100 µM | [16] > 100 µM | [17] > 100 µM

O=C(N/N=C(/CCN1CCCC1)CC(c1ccccc1)c1c(O)c2ccccc2oc1=O)c1ccncc1 (stereo not drawn)
inactive: [2] > 100 µM | [3] > 100 µM | [4] > 100 µM | [5] > 100 µM | [6] > 100 µM | [7] 72.6 µM | [9] > 100 µM | [10] > 100 µM | [11] > 100 µM | [18] > 100 µM | [12] > 100 µM | [13] > 100 µM | [14] > 100 µM | [15] > 100 µM | [19] > 100 µM | [16] 93.3 µM | [17] > 100 µM

CC(C)c1cccc(C(C)C)c1NC1=CC(=O)C(=O)c2ccccc21
inactive: [1] > 100 µM | [2] > 100 µM | [3] > 100 µM | [4] > 100 µM | [5] > 100 µM | [6] > 100 µM | [7] 58.6 µM | [8] > 100 µM | [9] > 100 µM | [10] > 100 µM | [18] > 100 µM | [12] > 100 µM | [13] > 100 µM | [15] > 100 µM | [19] > 100 µM | [16] > 100 µM

Cn1cc2ccccc2c1-c1nc(F)nc(Oc2ccc3c(c2)CC[C@@H]2C3CC[C@@]3(C)C2C[C@H](O)[C@@H]3O)n1 (stereo partly drawn)
inactive: [1] 17.7 µM | [2] 4.45 µM | [4] 18.6 µM | [5] 27.3 µM | [6] 20.7 µM | [7] 11.8 µM | [8] 19.7 µM | [9] 19.2 µM | [10] 13 µM | [11] 20.2 µM | [18] 17.5 µM | [12] 17.7 µM | [13] 30.9 µM | [14] 20.5 µM | [15] 10.3 µM | [19] 17.7 µM | [16] 24.8 µM

C=CCCCCCCCC(O)C1C[C@H](O)C(CCCCC)O1 (stereo partly drawn)
inactive: [1] 18.5 µM | [3] 13.4 µM | [4] 19.4 µM | [5] 19.8 µM | [6] 20.2 µM | [7] 17.1 µM | [8] 17.9 µM | [11] 16.9 µM | [18] 15 µM | [12] 19.5 µM | [13] 18.9 µM | [14] 15.2 µM | [15] 16 µM | [19] 18.3 µM | [16] 17.3 µM

NC(=O)c1ccccc1NC(=O)C(=O)Cc1nc2ccccc2nc1O
inactive: [1] > 100 µM | [2] > 100 µM | [4] > 100 µM | [5] > 100 µM | [6] > 100 µM | [7] > 100 µM | [8] > 100 µM | [9] 96.2 µM | [10] > 100 µM | [11] > 100 µM | [18] > 100 µM | [12] 71.8 µM | [13] > 100 µM | [14] 60.8 µM | [15] > 100 µM | [19] > 100 µM | [16] > 100 µM | [17] > 100 µM

C/C(COc1ccccc1)=N\NC(N)=S
inactive: [1] > 100 µM | [2] > 100 µM | [3] > 100 µM | [4] > 100 µM | [5] > 100 µM | [6] > 100 µM | [8] > 100 µM | [9] > 100 µM | [10] > 100 µM | [11] > 100 µM | [18] > 100 µM | [12] 68.1 µM | [13] > 10 µM | [14] > 100 µM | [15] > 100 µM | [19] 91.4 µM | [16] > 100 µM | [17] > 100 µM

CN/N=C(/CC(=O)c1sc(NNC(C)=O)nc1C)C(=O)Nc1ccc(OC)cc1OC
inactive: [1] > 100 µM | [2] > 100 µM | [3] > 100 µM | [4] > 100 µM | [5] > 100 µM | [6] > 100 µM | [7] > 100 µM | [8] > 100 µM | [9] > 100 µM | [10] > 100 µM | [11] > 100 µM | [18] > 100 µM | [12] > 100 µM | [13] > 100 µM | [15] > 100 µM | [19] > 100 µM | [16] > 100 µM | [17] > 100 µM

COc1cc([C@@H]2OC(=O)C3C2C(=O)O[C@H]3c2ccc(O)c(OC)c2)ccc1O (stereo partly drawn)
inactive: [1] > 100 µM | [2] > 100 µM | [3] > 100 µM | [4] > 100 µM | [5] > 100 µM | [6] > 100 µM | [8] > 100 µM | [9] > 100 µM | [11] > 100 µM | [18] > 100 µM | [12] > 100 µM | [13] > 100 µM | [14] > 100 µM | [15] > 100 µM | [19] > 100 µM | [16] > 100 µM | [17] > 100 µM

CC(C)(C)OC(=O)n1c2ccccc2c2c(=O)nc(N3CCCCC3)sc21
inactive: [1] > 100 µM | [2] > 100 µM | [4] > 100 µM | [5] > 100 µM | [6] > 100 µM | [7] > 100 µM | [8] > 100 µM | [9] > 100 µM | [10] > 100 µM | [11] > 100 µM | [18] > 100 µM | [12] > 100 µM | [13] 65.2 µM | [14] > 100 µM | [15] > 100 µM | [19] > 100 µM | [16] > 100 µM | [17] > 100 µM

COC(=O)[C@H]1C2CC[C@@H]3C45C[C@@H](c6ccoc6)O[C@@H]4O[C@@H](O2)C31CCC5C (stereo partly drawn)
inactive: [1] > 100 µM | [2] > 100 µM | [3] 76.7 µM | [4] > 100 µM | [5] > 100 µM | [6] > 100 µM | [7] 91.6 µM | [9] > 100 µM | [10] 71.1 µM | [11] > 100 µM | [18] > 100 µM | [12] > 100 µM | [13] > 100 µM | [15] > 100 µM | [19] > 100 µM | [16] > 100 µM | [17] > 100 µM

COC(=O)C(=O)C(C(=O)C(=O)Nc1cccc(C(C)=O)c1)c1nc2ccc([N+](=O)[O-])cc2nc1O (stereo not drawn)
inactive: [1] > 100 µM | [2] > 100 µM | [3] > 100 µM | [4] > 100 µM | [5] > 100 µM | [6] > 100 µM | [7] > 100 µM | [8] > 100 µM | [9] > 100 µM | [10] > 100 µM | [11] > 100 µM | [18] > 100 µM | [12] > 100 µM | [13] > 100 µM | [15] > 100 µM | [19] > 100 µM | [16] > 100 µM | [17] > 100 µM

COc1cccc(C2=NC(C(C)C)CO2)c1OC (stereo not drawn)
inactive: [1] > 100 µM | [2] > 100 µM | [3] > 100 µM | [4] > 100 µM | [5] > 100 µM | [6] > 100 µM | [7] > 100 µM | [8] > 100 µM | [9] > 100 µM | [10] > 100 µM | [11] > 100 µM | [18] > 100 µM | [12] > 100 µM | [13] > 100 µM | [14] > 100 µM | [19] > 100 µM | [16] > 100 µM | [17] > 100 µM

O=C(O)/C(=C/C=C/c1ccccc1)c1csc(-c2nc(/C(=C\C=C\c3ccccc3)C(=O)O)cs2)n1
inactive: [1] 22.3 µM | [2] 18 µM | [4] 43.8 µM | [5] 68.2 µM | [6] 32.7 µM | [8] 33 µM | [9] > 100 µM | [10] 17.4 µM | [11] 28 µM | [18] 28.8 µM | [12] 27.9 µM | [13] 40.8 µM | [14] 28.1 µM | [15] 38.5 µM | [19] 33 µM | [16] 27.2 µM

CCCCCN(CCCCC)C(=O)[C@H](CCC(=O)OCc1ccccc1)NC(=O)c1cc2ccccc2[nH]1
inactive: [1] > 100 µM | [2] > 100 µM | [3] > 100 µM | [4] > 100 µM | [5] > 100 µM | [6] > 100 µM | [7] > 100 µM | [8] > 100 µM | [9] > 100 µM | [10] > 100 µM | [11] > 100 µM | [18] > 100 µM | [12] > 100 µM | [13] > 100 µM | [14] > 100 µM | [15] > 100 µM | [16] > 100 µM | [17] > 100 µM
